Results on eleven compounds are retold here after patent US20070149446A1, “Tamandarin analogs and fragments thereof and methods of making and using” (The Trustees of the University of Pennsylvania Center for …, priority 2003, published 2007).

Where two headings read alike, the source gives them in different places. Starred links: 1 amine or outer side, 2 acyl side, 3 side chain; linkers in the order of their positions; H or OH if unused. Positions of bridges follow the written chain, without caps; N, C: chain ends. Non-standard residues stand in square brackets, D forms with d. Residues, ends and D or L forms follow the SMILES beside them. Hexanoyl(3S-OH,4R-NH2,5-Me) = CC(C)[C@@H](N[*:1])[C@@H](O)CC(=O)[*:2]; NMeY = CN[C@@H](Cc1ccc(O)cc1)C(=O)O; dNMeL = CN[C@H](CC(C)C)C(=O)O; Hiv = CC(C)[C@H](O)C(=O)O; Lac = C[C@H](O)C(=O)O

In general, GI50 refers to the concentration at which growth is held to half of that of the control. The low end stands for more potent growth inhibition, the high end for less potent growth inhibition.

The conditions of series [1]: amide bond, 17.0 h.
For series [2] the following is noted: amide bond, 21-membered ring, HATU/NMM, CH3CN, 0.0 °C.
For series [3], the system named is LN-caP. Put plainly: SRB colorimetric cell growth inhibition assay, LN-caP. The method, then: (§1) This form of assay employs 96 well cell culture microplates of […] diameter (Faircloth, 1988; Mosmann, 1983). Most of the cell lines are obtained from American Type Culture Collection (ATCC) derived from different human cancer types.
(§2) Cells are maintained in RPMI 1640 10% FBS, supplemented with 0.1 g/l penicillin and 0.1 g/l streptomycin sulfate and then incubated at 37° C., 5% CO2 and 98% humidity. For the experiments, cells were harvested from subconfluent cultures using trypsin and resuspended in fresh medium before plating.
(§3) Cells are seeded in 96 well microtiter plates, at 5×10^3 cells per well in aliquots of 195 μl medium, and they are allowed to attach to the plate surface by growing in drug free medium for 18 hours. Afterward, samples are added in aliquots of 5 μl in a ranging from 10 to 10-8 μg/ml, dissolved in DMSO/EtOH/PBS (0.5:0.5:99). After 48 hours exposure, the antitumor effect are measured by the SRB methodology: cells are fixed by adding 50 μl of cold 50% (wt/vol) trichloroacetic acid (TCA) and incubated for 60 minutes at 4° C.
(§4) Plates are washed with deionised water and dried. One hundred μl of SRB solution (0.4% wt/vol in 1% acetic acid) is added to each microtiter well and incubated for 10 minutes at room temperature. Unbound SRB is removed by washing with 1% acetic acid. Plates are air dried and bound stain is solubilized with Tris buffer. Optical densities are read on a automated spectrophotometric plate reader at a single wavelength of 490 nm.
(§5) The values for mean+/−SD of data from triplicate wells are calculated.
(§6) Some parameters for cellular responses can be calculated: GI=growth inhibition, TGI=total growth inhibition (cytostatic effect) and LC=cell killing (cytotoxic effect).

For series [4], the system named is HT29. Put plainly: SRB colorimetric cell growth inhibition assay, HT29. The method, then:
as §1, §2, §3, §4, §5, §6

Series [5] has as its system SK-BR3. Description: SRB colorimetric cell growth inhibition assay, SK-BR3. The method, then: as §1, §2, §3, §4, §5, §6
Series [6] relates to A549. Description: SRB colorimetric cell growth inhibition assay, A549. The procedure: as §1, §2, §3, §4, §5, §6
In series [7] the test system is SK-MEL-28. Description: SRB colorimetric cell growth inhibition assay, SK-MEL-28. The method, then:
as §1, §2, §3, §4, §5, §6

In series [8] the test system is PANC1. Description: SRB colorimetric cell growth inhibition assay, PANC1. The method, then: as §1, §2, §3, §4, §5, §6
Series [9] concerns IGROV. Put plainly: SRB colorimetric cell growth inhibition assay, IGROV. The procedure:
as §1, §2, §3, §4, §5, §6

For series [10], the system named is LOVO. Put plainly: SRB colorimetric cell growth inhibition assay, LOVO. The method, then:
as §1, §2, §3, §4, §5, §6

In series [11] the test system is HELA. Put plainly: SRB colorimetric cell growth inhibition assay, HELA. The procedure:
as §1, §2, §3, §4, §5, §6

Series [12] has as its system LOVO-DOX. Description: SRB colorimetric cell growth inhibition assay, LOVO-DOX. The procedure:
as §1, §2, §3, §4, §5, §6

Series [13] relates to DU145. Put plainly: SRB colorimetric cell growth inhibition assay, DU145. The procedure:
as §1, §2, §3, §4, §5, §6

Series [14] deals with K562. Put plainly: SRB colorimetric cell growth inhibition assay, K562. The method, then: as §1, §2, §3, §4, §5, §6
Series [15] concerns HELA-APL. Description: SRB colorimetric cell growth inhibition assay, HELA-APL. The method, then:
as §1, §2, §3, §4, §5, §6

Series [16] deals with IGROV-ET. Description: SRB colorimetric cell growth inhibition assay, IGROV-ET. The method, then:
as §1, §2, §3, §4, §5, §6

The mark [17] stands for this setting: Homo sapiens, 48 h, read-out: LC50.

In the case of `COc1ccc(C[C@H]2C(=O)OC[C@H](NC(=O)OC(C)(C)C)C(=O)N[C@H](C(C)C)[C@@H](O)CC(=O)O[C@@H](C(C)C)C(=O)N[C@@H](CC(C)C)C(=O)N3CCC[C@H]3C(=O)N2C)cc1`, in series [1] (from CN[C@@H](Cc1ccc(OC)cc1)C(=O)OC[C@H](NC(=O)OC(C)(C)C)C(=O)N[C@H](C(C)C)[C@@H](O)CC(=O)O[C@H](C(=O)N[C@@H](CC(C)C)C(=O)N1CCC[C@H]1C(=O)O)C(C)C, HATU/NMM, CH3CN, 5.7 mM, 25.0 °C), the ring closure, yield of all isomers came to 89%.
For the compound [Ser^6]-Tamandarin B macrocycle, in series [2] (5.7 mM), the ring closure, isolated yield was found to be 89%.
`COc1ccc(C[C@H]2C(=O)O[C@H](C)[C@H](NC(=O)OC(C)(C)C)C(=O)N[C@H](C(C)C)[C@@H](O)CC(=O)O[C@@H](C(C)C)C(=O)N[C@@H](CC(C)C)C(=O)N[C@@H](C)C(=O)N2C)cc1` came in with a ring closure, yield of all isomers in series [1] (from CN[C@@H](Cc1ccc(OC)cc1)C(=O)O[C@H](C)[C@H](NC(=O)OC(C)(C)C)C(=O)N[C@H](C(C)C)[C@@H](O)CC(=O)O[C@H](C(=O)N[C@@H](CC(C)C)C(=O)N[C@@H](C)C(=O)O)C(C)C, HATU/NMM, CH3CN, 4.6 mM, 25.0 °C) of 60%.
In turn, `CC(C)C[C@@H]1NC(=O)[C@H](C(C)C)OC(=O)C[C@H](O[Si](C(C)C)(C(C)C)C(C)C)[C@@H](C(C)C)NC(=O)[C@@H](NC(=O)OC(C)(C)C)[C@@H](C)OC(=O)[C@H](Cc2ccccc2)N(C)C(=O)[C@@H]2CCCN2C1=O` showed a ring closure, yield of all isomers in [1] (from CC(C)C[C@H](NC(=O)[C@@H](OC(=O)C[C@H](O[Si](C(C)C)(C(C)C)C(C)C)[C@H](N)C(C)C)C(C)C)C(=O)N1CCC[C@H]1C(=O)N(C)[C@@H](Cc1ccccc1)C(=O)O[C@H](C)[C@H](NC(=O)OC(C)(C)C)C(=O)O, HATU/DIEA, DMF, 8.9 mM, 25.0 °C, 3 steps) of 15%.
As to `COc1ccc(C[C@H]2C(=O)O[C@H](C)[C@H](NC(=O)OC(C)(C)C)C(=O)N[C@H](C(C)C)[C@@H](O[Si](C(C)C)(C(C)C)C(C)C)CC(=O)O[C@@H](C(C)C)C(=O)N[C@@H](CC(C)C)C(=O)N3CCC[C@H]3C(=O)N2C)cc1`, in [1] (from COc1ccc(C[C@@H](C(=O)O[C@H](C)[C@H](NC(=O)OC(C)(C)C)C(=O)O)N(C)C(=O)[C@@H]2CCCN2C(=O)[C@H](CC(C)C)NC(=O)[C@@H](OC(=O)C[C@H](O[Si](C(C)C)(C(C)C)C(C)C)[C@H](N)C(C)C)C(C)C)cc1, HATU/DIEA, DMF, 10.0 mM, 25.0 °C, 3 steps), the ring closure, yield of all isomers came to 19%.
In [2] (4.6 mM), [Ala^4]-Tamandarin B macrocycle returned a ring closure, isolated yield of 60%.
The compound `COc1ccc(C[C@H]2C(=O)O[C@H](C)[C@H](NC(=O)OC(C)(C)C)C(=O)N[C@H](C(C)C)[C@@H](O)CC(=O)O[C@@H](C(C)C)C(=O)N[C@@H](CC(C)C)C(=O)N(C)[C@@H](C)C(=O)N2C)cc1` came in with a ring closure, yield of all isomers in series [1] (from CN[C@@H](Cc1ccc(OC)cc1)C(=O)O[C@H](C)[C@H](NC(=O)OC(C)(C)C)C(=O)N[C@H](C(C)C)[C@@H](O)CC(=O)O[C@H](C(=O)N[C@@H](CC(C)C)C(=O)N(C)[C@@H](C)C(=O)O)C(C)C, HATU/NMM, CH3CN, 4.8 mM, 25.0 °C) of 48%.
[N-Me-Ala^4]-Tamandarin B macrocycle had a ring closure, isolated yield in [2] (4.8 mM) of 48%.
Take `COc1ccc(C[C@H]2C(=O)OC[C@H](NC(=O)[C@@H](CC(C)C)N(C)C(=O)[C@@H]3CCCN3C(=O)[C@H](C)O)C(=O)N[C@H](C(C)C)[C@@H](O)CC(=O)O[C@@H](C(C)C)C(=O)N[C@@H](CC(C)C)C(=O)N3CCC[C@H]3C(=O)N2C)cc1` [Compound 62, [N-Ser^6]-Tamandarin B] (H-[Lac]P[dNMeL]S[Hexanoyl(3S-OH,4R-NH2,5-Me)][Hiv]LP[NMeY](Me); ester 4-C): the GI50 came out at 2.71 nM in series [3] (Homo sapiens, LNCaP, 48 h); 23.7 nM in [4] (Homo sapiens, HT-29, 48 h); 3.74 nM in series [5] (Homo sapiens, SK-BR-3, 48 h); 51.5 nM in series [6] (Homo sapiens, A549, 48 h); 16.6 nM in series [7] (Homo sapiens, SK-MEL-28, 48 h); 34.9 nM in series [8] (Homo sapiens, PANC-1, 48 h). The GI50 in [9] (Homo sapiens, IGROV, 48 h) came to 1990 nM; in [10] (Homo sapiens, LoVo, 48 h) it was 38.9 nM; in series [11] (Homo sapiens, HeLa, 48 h), 3.76 nM; in series [12] (Homo sapiens, 48 h) it was 2390 nM; in [13] (Homo sapiens, DU-145, 48 h) it was 6.79 nM; in [14] (Homo sapiens, K562, 48 h) it was 78 nM. Moreover, the GI50 was found to be 411 nM in series [15] (Homo sapiens, 48 h) and 456 nM in series [16] (Homo sapiens, 48 h). Besides, the CC50 in series [3] (Homo sapiens, LNCaP, 48 h, read-out: LC50) was 58.4 nM; in series [4] (Homo sapiens, HT-29, 48 h, read-out: LC50) it was at least 9730 nM; in series [5] (Homo sapiens, SK-BR-3, 48 h, read-out: LC50), at least 9730 nM; in series [6] (Homo sapiens, A549, 48 h, read-out: LC50) it was 2900 nM; in [7] (Homo sapiens, SK-MEL-28, 48 h, read-out: LC50) it was 675 nM; in series [8] (Homo sapiens, PANC-1, 48 h, read-out: LC50), at least 9730 nM. The CC50 in series [9] (Homo sapiens, IGROV, 48 h, read-out: LC50) is 9840 nM; in series [10] (Homo sapiens, LoVo, 48 h, read-out: LC50), 3660 nM; in series [11] (Homo sapiens, HeLa, 48 h, read-out: LC50), 368 nM; in series [12] (setting [17]), at least 9730 nM; in [13] (Homo sapiens, DU-145, 48 h, read-out: LC50), 82.6 nM; in series [14] (Homo sapiens, K562, 48 h, read-out: LC50), 2390 nM. Moreover, the CC50 in series [15] (setting [17]) is at least 9730 nM; in series [16] (setting [17]), 6950 nM. For the same compound, the TGI was determined as 7.24E−09 Molar in series [3] (LN-caP cells, total growth inhibition, SRB, 48 hours exposure); 2.03E−07 Molar in series [4] (HT29 cells, total growth inhibition, SRB, 48 hours exposure); 4.05E−08 Molar in series [5] (SK-BR3 cells, total growth inhibition, SRB, 48 hours exposure); 3.51E−07 Molar in series [6] (A549 cells, total growth inhibition, SRB, 48 hours exposure); 8.24E−08 Molar in series [7] (SK-MEL-28 cells, total growth inhibition, SRB, 48 hours exposure); 8.82E−07 Molar in series [8] (PANC1 cells, total growth inhibition, SRB, 48 hours exposure). The TGI in series [9] (IGROV cells, total growth inhibition, SRB, 48 hours exposure) amounted to 5.29E−06 Molar; in [10] (LOVO cells, total growth inhibition, SRB, 48 hours exposure) it was 2.31E−07 Molar; in series [11] (HELA cells, total growth inhibition, SRB, 48 hours exposure), 2.61E−08 Molar; in series [12] (LOVO-DOX cells, total growth inhibition, SRB, 48 hours exposure), 8.40E−06 Molar; in series [13] (DU145 cells, total growth inhibition, SRB, 48 hours exposure), 2.49E−08 Molar; in series [14] (K562 cells, total growth inhibition, SRB, 48 hours exposure) it was 3.03E−07 Molar. Further, the TGI in [15] (HELA-APL cells, total growth inhibition, SRB, 48 hours exposure) is recorded as 5.41E−06 Molar; in [16] (IGROV-ET cells, total growth inhibition, SRB, 48 hours exposure), 1.90E−06 Molar.
On to `CC(C)C[C@@H]1NC(=O)[C@H](C(C)C)OC(=O)C[C@H](O)[C@@H](C(C)C)NC(=O)[C@@H](NC(=O)OC(C)(C)C)[C@@H](C)OC(=O)[C@H](Cc2ccc3ccccc3c2)N(C)C(=O)[C@@H]2CCCN2C1=O`, for which, in series [1] (from CN[C@@H](Cc1ccc2ccccc2c1)C(=O)O[C@H](C)[C@H](NC(=O)OC(C)(C)C)C(=O)N[C@H](C(C)C)[C@@H](O)CC(=O)O[C@H](C(=O)N[C@@H](CC(C)C)C(=O)N1CCC[C@H]1C(=O)O)C(C)C, HATU, CH3CN, 5.0 mM, 0.0 °C), the ring closure, yield of all isomers turned out to be 65%.
On to “[2-Naphthylala^5]-Tamandarin B macrocycle”, for which the ring closure, isolated yield in series [2] (5.0 mM) was determined as 65%.
